Experiment [1] has as its target T1, COX-2 (Ovis aries, UniProt P79208).
T1 construct: gene PTGS2
T1 sequence (P79208 17-603): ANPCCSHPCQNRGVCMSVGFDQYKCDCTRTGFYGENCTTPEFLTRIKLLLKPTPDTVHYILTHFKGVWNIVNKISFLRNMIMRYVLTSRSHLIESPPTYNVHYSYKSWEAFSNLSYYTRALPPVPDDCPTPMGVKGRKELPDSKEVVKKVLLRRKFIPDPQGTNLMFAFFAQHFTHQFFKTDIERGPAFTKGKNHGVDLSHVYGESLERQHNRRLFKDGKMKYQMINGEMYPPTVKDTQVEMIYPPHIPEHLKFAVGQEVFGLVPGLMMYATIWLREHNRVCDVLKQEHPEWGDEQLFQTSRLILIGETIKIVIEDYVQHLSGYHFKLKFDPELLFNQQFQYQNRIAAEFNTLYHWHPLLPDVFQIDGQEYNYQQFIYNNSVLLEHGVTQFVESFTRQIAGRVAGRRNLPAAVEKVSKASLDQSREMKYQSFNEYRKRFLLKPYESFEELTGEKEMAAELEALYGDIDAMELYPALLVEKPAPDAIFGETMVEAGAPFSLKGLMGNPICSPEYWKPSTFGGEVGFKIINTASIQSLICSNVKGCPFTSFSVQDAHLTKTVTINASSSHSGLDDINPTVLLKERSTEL
Put plainly: colorimetric COX (ovine) inhibitor screening assay kit (Cayman […]); […] maximum inhibition at […]. It is filed as biochemical.

Experiment [2] concerns the target T2, COX-1 (Ovis aries, UniProt P05979).
T2 construct: gene PTGS1
T2 sequence (P05979 25-600): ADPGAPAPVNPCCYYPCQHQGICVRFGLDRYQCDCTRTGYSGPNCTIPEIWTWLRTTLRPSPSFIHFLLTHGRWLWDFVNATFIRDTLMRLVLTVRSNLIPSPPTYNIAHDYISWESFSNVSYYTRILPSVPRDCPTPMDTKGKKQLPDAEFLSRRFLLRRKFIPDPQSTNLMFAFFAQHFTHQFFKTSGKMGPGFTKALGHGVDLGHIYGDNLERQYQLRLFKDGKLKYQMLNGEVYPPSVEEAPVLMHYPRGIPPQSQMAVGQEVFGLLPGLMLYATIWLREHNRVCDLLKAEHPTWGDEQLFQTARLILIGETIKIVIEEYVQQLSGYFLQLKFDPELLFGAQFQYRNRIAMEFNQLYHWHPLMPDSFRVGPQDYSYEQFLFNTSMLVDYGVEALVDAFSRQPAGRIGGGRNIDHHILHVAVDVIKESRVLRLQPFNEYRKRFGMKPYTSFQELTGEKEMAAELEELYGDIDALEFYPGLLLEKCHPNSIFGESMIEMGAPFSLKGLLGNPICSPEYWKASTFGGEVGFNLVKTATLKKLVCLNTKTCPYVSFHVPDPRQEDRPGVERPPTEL
Kind of experiment: colorimetric COX (ovine) inhibitor screening assay kit (Cayman […]). It is filed as biochemical.

IC50 data for one compound are collected here from publication PMC4279175, “Mechanisms Underlying the Antinociceptive, Antiedematogenic, and Anti-Inflammatory Activity of the Main Flavonoid from Kalanchoe pinnata” (Evidence-based Complementary and Alternative Medicine : eCAM, 2014).

One may read the IC50 as the concentration that gives 50% inhibition. Consider `C[C@@H]1O[C@@H](Oc2c(-c3ccc(O)c(O)c3)oc3cc(O)cc(O)c3c2=O)[C@H](O[C@@H]2OC[C@H](O)[C@H](O)[C@H]2O)[C@H](O)[C@H]1O` [KPFV, quercetin 3-O-α-L-arabinopyranosyl (1 → 2) α-L-rhamnopyranoside], for which the IC50 was more than 84 µM in experiment [1] and 38 µM in experiment [2].
